Patent publication US11179450B2, “Long chain antigen containing interepitope sequence that promotes antigen presentation to T cells” (MIE UNIVERSITY, priority 2013, dated 2021)

Test system: CD8+ T cells specific to MA p265, NY p81 and mERK2 9m
Test: Specific CD8+ T cell induction by CHP/long chain peptide vaccines in mice, intracellular cytokine staining of spleen cells
Type: in vivo, BALB/c mice
Text: Long chain peptide antigens MEN, all containing three types of mouse CD8+ T cell epitope sequences (MA p265 (Sequence No. 27), NY p81 (Sequence No. 29), and mERK2 9m (Sequence No. 28)), were synthesized. The interepitope sequences between the respective epitopes were respectively six consecutive tyrosines (Y6) (Sequence No. 1), six consecutive glycines (G6) (Sequence No. 2), six consecutive prolines (P6) (Sequence No. 3), or six consecutive threonines (T6) (Sequence No. 4). Each long chain peptide antigen was complexed with cholesterol-modified pullulan (CHP), which is a type of delivery system, and administered as a vaccine to a mouse. In the process of administration, CpG oligo DNA was coadministered as an adjuvant. Spleen cells were collected one week after the final administration and the frequencies of CD8+ T cells specific to the respective epitope sequences were measured by an intracellular cytokine staining method.
Long chain peptide antigens NME, all containing three types of mouse CD8+ T cell epitope sequences (MA p265 (Sequence No. 27), NY p81 (Sequence No. 29), and mERK2 9m (Sequence No. 28)), were synthesized. The antigens differ from the MEN sequences shown in FIG. 1 in the order of the three types of epitopes. The interepitope sequences between the respective epitopes were respectively six consecutive tyrosines (Y6) (Sequence No. 5), six consecutive glycines (G6) (Sequence No. 6), or six consecutive prolines (P6) (Sequence No. 7). Vaccines containing the respective long chain peptide antigens were administered to mice in the same manner as in FIG. 1 and the frequencies of CD8+ T cells specific to the respective epitope sequences were measured by the intracellular cytokine staining method.
Long chain peptide antigens MEN, ENM, and NME, all containing three types of mouse CD8+ T cell epitope sequences (MA p265 (Sequence No. 27), NY p81 (Sequence No. 29), and mERK2 9m (Sequence No. 28)), were synthesized. MEN, ENM, and […] in the order of the three types of epitopes. The interepitope sequences between the respective epitopes were each six consecutive tyrosines (Y6) (Sequence Nos. 1, 5 and 8). Vaccines containing the respective long chain peptide antigens were administered to mice in the same manner as in FIG. 1 and the frequencies of CD8+ T cells specific to the respective epitope sequences were measured by the intracellular cytokine staining method.
Each long chain peptide was dissolved in dimethyl sulfoxide (DMSO) at a concentration of 10 mg/mL. CHP was dissolved in 6 M urea-containing phosphate buffered saline (PBS) at a concentration of 10 mg/mL 1 mL (10 mg) of the long chain peptide solution and 20 mL (200 mg) of the CHP solution were mixed and left to stand at room temperature overnight in a dark place. The liquid mixture was transferred into a dialysis membrane (molecular weight cutoff: 3,500; Thermo Fisher Scientific, Inc.) and dialyzed for 2 hours to overnight at 4° C. against 0.6 M urea-containing PBS of a volume ratio of not less than 100 times as the dialysis outer solution. Dialysis was then performed for 2 hours to overnight at 4° C. against 0.06 M urea-containing PBS of a volume ratio of not less than 100 times as the dialysis outer solution. Dialysis was performed again for 2 hours to overnight at 4° C. against PBS of a volume ratio of not less than 100 times as the dialysis outer solution. The dialyzed inner solution was collected, filtered through a filtration sterilization filter of 0.45 μm or 0.22 μm pore size, and thereafter the UV absorption at 280 nm was measured to determine the final concentration of the long chain peptide from its molecular extinction coefficient.
Each CHP/long chain peptide complex as the vaccine and the CpG oligo DNA as the adjuvant were administered at the same time to a mouse. Administration was performed by subcutaneous injection on the back of the mouse. […]

SNPARYEFLYYYYYYQYIHSANVLYYYYYYRGPESRLL (Long chain peptide antigen, containing three types of mouse CD8+ T cell epitope sequences (MA p265, NY p81, and mERK2 9m)) [MEN(Y6)]
induction of specific CD8+ T cells corresponding to all three types of epitopes (FIG. 1, MEN antigens complexed with CHP, subcutaneous, CpG oligo DNA adjuvant, spleen cells one week after final administration): clearly induced
induction of specific CD8+ T cells corresponding to all three types of epitopes (FIG. 4, MEN, ENM, NME epitope orders, interepitope sequence fixed at Y6): clearly induced
number of tyrosines of the interepitope sequence, judged in view of the results for the three types of epitopes (FIG. 6, comparing one to six tyrosines): best
number of tyrosines of the interepitope sequence, judged in view of the results for the three types of epitopes (FIG. 7, comparing five to ten tyrosines): best
